US12227577B2, “Combination of a PD-1 antagonist, an ATR inhibitor and a platinating agent for the treatment of cancer” (Merck Patent GMBH, priority 2018, dated 2025)
Where “and” joins values, the source holds several entries; their conditions need not be identical. Identical values can stand only once.

Assays:
[1] = system: MC38 colorectal cancer syngeneic model; test: Experiment 2A: triple combination of Avelumab, Cisplatin and ATRi 1 in subcutaneous MC38 model; format: in vivo, C57BL/6 mice; conditions: Exp. 2A; for Tumor-free mice on day 66: 10 mice per group; for Median survival: Kaplan-Meier, survival data up to day 66, euthanized at tumor burden of 3,000 mm^3; for TGI % (%) / T/C (%) / anti-tumor activity: day 17; for T/C (%): treated vs control group mean volume; for anti-tumor activity: in words
Excerpt: The objective of this study was to evaluate the in vivo anti-tumor efficacy of a triple combination treatment comprising avelumab, a platinating agent (cisplatin or carboplatin) and ATRi 1 (Compound 1) in the subcutaneous MC38 colorectal cancer syngeneic model in C57BL/6 mice.
The tumor cells were routinely subcultured twice weekly by trypsin-EDTA treatment.
Treatments were started on day 7 after tumor inoculation when the average tumor size reached approximately 80 mm^3. […] Each group consisted of 10 tumor-bearing mice.
(§1) The major endpoint was to see if the tumor growth could be delayed or mice could be cured. Tumor size was measured twice weekly in two dimensions using a caliper, and the volume was expressed in mm^3 using the formula: V=0.5 a×b^2 where a and b are the long and short diameters of the tumor, respectively. The tumor size was then used for calculation of T/C values. The T/C value (in percent) is an indication of antitumor effectiveness; T and C are the mean volumes of the treated and control groups, respectively, on a given day. TGI was calculated for each group using the formula: TGI (%)=[1−(Ti−T0)/(Vi−V0)]×100; Ti is the average tumor volume of a treatment group on a given day, TO is the average tumor volume of the treatment group on the day of treatment start, Vi is the average tumor volume of the vehicle control group on the same day with Ti, and V0 is the average tumor volume of the vehicle group on the day of treatment start. Animals were euthanized as they reached tumor burden of 3,000 mm^3 per IACUC regulations and the time to reach this endpoint was used for Kaplan-Meier survival analysis.
Statistical analysis of difference in the tumor volume among the groups were conducted on the data obtained at the best therapeutic time point on day 17 after the start of treatment). A one-way ANOVA was performed, and when a significant F-statistics (a ratio of treatment variance to the error variance) was obtained, comparisons between groups were carried out with Games-Howell test. All data were analyzed using SPSS 17.0. p<0.05 was considered to be statistically significant.
(§2) Statistical analysis of difference in survival rate among the groups were conducted on the survival data up to day 66 after the start of treatment. Kaplan-Meier test was performed, all data were analyzed using GraphPad Prism 6.0., comparisons between groups were carried out with Log-rank test, p<0.05 was considered to be statistically significant.
The anti-tumor efficacy of the triple combination avelumab, cisplatin and ATRi 1 was tested according to the above methods and with the experimental design outlined in Table 2.

[2] = system: MC38 colorectal cancer syngeneic model; test: Experiment 2B: triple combination of Avelumab, Carboplatin and ATRi 1 in subcutaneous MC38 model; format: in vivo, C57BL/6 mice; conditions: Exp. 2B; for Tumor-free mice on day 66: 10 mice per group; for Median survival: Kaplan-Meier, survival data up to day 66, euthanized at tumor burden of 3,000 mm^3; for TGI % (%) / T/C (%) / anti-tumor activity: day 17; for T/C (%): treated vs control group mean volume; for anti-tumor activity: in words; for Tumor Size (mm^3) at day 17: day 17 after start of treatment, Mean ± SEM, Avelumab 400 μg i.v. days 3, 6, 9, Carboplatin 60 mg/kg i.p., ATRi 1 60 mg/kg p.o. days 0, 7
Experimental: The MC38 tumor cells were maintained in vitro as a monolayer culture in DMEM+2 mM glutamine supplemented with 10% heat inactivated fetal bovine serum, 100 U/ml penicillin and 100 μg/ml streptomycin at 37° C. in an atmosphere of 5% CO2 in air. The tumor cells were routinely subcultured twice weekly by trypsin-EDTA treatment. The cells growing in an exponential growth phase were harvested and counted for tumor inoculation.
Each mouse was inoculated subcutaneously at the right upper flank with MC38 cells (3×10^5) in 0.1 mL of PBS for tumor development. Treatments were started on day 7 after tumor inoculation when the average tumor size reached approximately 80 mm^3. The animals were assigned into groups using an Excel-based randomization software performing stratified randomization based upon their tumor volumes. Each group consisted of 10 tumor-bearing mice. The tested compounds were administered to the mice according to the predetermined regimen shown in the experimental design Table 2 and Table 6, respectively.
as §1
A one-way ANOVA was performed, and when a significant F-statistics (a ratio of treatment variance to the error variance) was obtained, comparisons between groups were carried out with Games-Howell test. All data were analyzed using SPSS 17.0. p<0.05 was considered to be statistically significant.
as §2
The anti-tumor efficacy of the triple combination avelumab, carboplatin and ATRi 1 was tested according to the above methods and with the experimental design outlined in Table 6.

[3] = system: MB49 syngeneic tumor model; test: Triple combination treatment in murine subcutaneous MB49 tumor model; format: in vivo, C57BL/6 female mice; conditions: for Median survival: Kaplan-Meier, sacrificed when tumor volume reached 2000 mm^3; for Tumor Size (mm^3) at day 18: day 18, Mean ± SEM, Avelumab 400 μg i.v. days 3, 6, 9, Carboplatin 60 mg/kg i.p., ATRi 1 60 mg/kg p.o. days 0, 7; for TGI % (%): day 18 after start of treatment, vs control group; for tumor growth inhibition effect: in words, compared to the control group
Experimental: C57BL/6 female mice at 8-9 weeks of age where subcutaneously injected into the right flank with 0.5×10^6 of viable MB49 tumor cells in 0.1 mL PBS. The animals were randomized and therapy initiated when the tumors reached a volume of around 100 mm^3 (day 0 of treatment). Each group consisted of 10 tumor-bearing mice. The tested compounds were administered to the mice according to the predetermined regimen shown in the experimental design Table 14:
The tumor size was then used for calculation of T/C values.
The body weight was also measured twice a week. Mice were sacrificed when the tumor volume reached 2000 mm^3.
One-way analysis of variance (ANOVA) with Bonferroni's Multiple Comparisons Test, two-way ANOVA, unpaired t-test and Log-rank test from the GraphPad Prism software package were used (Prism 5 for Windows, Version 5.0, GraphPad Software Inc., San Diego, CA). p<0.05 was considered to be statistically significant.

[4] = 10 mg/kg dose; cited from earlier work

CNCc1ccc(-c2cc(-c3nc(-c4ccc(S(=O)(=O)C(C)C)cc4)cnc3N)on2)cc1 [ATRi 1, 3-[3-(4-Methylaminomethyl-phenyl)-isoxazol-5-yl]-5-[4-(propane-2-sulfonyl)-phenyl]-pyrazin-2-ylamine]
Tumor-free mice on day 66 [1]: 0/10 | Median survival [1]: 24 days | TGI % (%) [1]: 11.6% | T/C (%) [1]: 88.9% | anti-tumor activity [1]: minor anti-tumor activity | Tumor-free mice on day 66 [2]: 0/10 | Median survival [2]: 21 days | TGI % (%) [2]: −31.2% | T/C (%) [2]: 129.5% | anti-tumor activity [2]: minor anti-tumor activity | Median survival [3]: 21 days | Tumor Size (mm^3) at day 18 [3]: 2087 ± 333 mm^3 | TGI % (%) [3]: 7.8% | tumor growth inhibition effect [3]: did not show any significant tumor growth inhibition effect

N.N.O=C([O-])C1(C(=O)[O-])CCC1.[Pt+2] [Carboplatin, reference compound]
Tumor-free mice on day 66 [2]: 0/10 | Median survival [2]: 28 days | TGI % (%) [2]: 55.5% | T/C (%) [2]: 47.6% | Tumor Size (mm^3) at day 17 [2]: 671 mm^3 and 671 ± 160 mm^3 | anti-tumor activity [2]: minor anti-tumor activity | Median survival [3]: 21 days | Tumor Size (mm^3) at day 18 [3]: 1814 ± 212 mm^3 | TGI % (%) [3]: 19.9% | tumor growth inhibition effect [3]: did not show any significant tumor growth inhibition effect

N.N.[Cl][Pt][Cl] [Cisplatin, reference compound]
Tumor-free mice on day 66 [1]: 0/10 | Median survival [1]: 28 days | TGI % (%) [1]: 38.7% | T/C (%) [1]: 63.1% | anti-tumor activity [1]: minor anti-tumor activity

Avelumab: fully human monoclonal antibody of the immunoglobulin (Ig) G1 isotype; selectively binds to PD-L1
Tumor-free mice on day 66 [1]: 0/10 | Median survival [1]: 26 days | TGI % (%) [1]: 41.8% | T/C (%) [1]: 60.2% | anti-tumor activity [1]: minor anti-tumor activity | Tumor-free mice on day 66 [2]: 0/10 | Median survival [2]: 31 days | TGI % (%) [2]: 47.8% | T/C (%) [2]: 54.9% | Tumor Size (mm^3) at day 17 [2]: 774 mm^3 and 774 ± 153 mm^3 | anti-tumor activity [2]: minor anti-tumor activity | Median survival [3]: 22.5 days | Tumor Size (mm^3) at day 18 [3]: 1378 ± 175 mm^3 | TGI % (%) [3]: 39.1% | tumor growth inhibition effect [3]: moderate tumor growth inhibition effect | receptor occupancy [4]: excellent | tolerability [4]: well tolerated
